Read-outs that look alike come from different tables or passages of the source. No end group written: not given here.
Columns and labels:
PBMCs = experiment: Cytotoxicity towards PBMCs, lactate dehydrogenase (LDH) release assay (Tables 6, 7); settings: SPOT synthesized peptide ~25 μM, PBMCs from 3 human donors; Table 6
S. aureus (Sau) [1] = format: cell-based
[2] = test system: planktonic methicillin resistant S. aureus; experiment: microbe, parasite or virus in culture; format: cell-based, Staphylococcus aureus
E. coli (Ec) [3] = format: cell-based
Procedure: (§1) The same strains as in Table 18 were assessed for Minimal Biofilm Inhibitory Concentrations (MBIC) (Table 19). Italics=excellent activity (less than or equal to 4 μg/ml). ND=Not determined. Peptides 3013, 3015 and 3016 inhibited biofilm growth in the largest number of bacterial strains (5, 5 and 6 out of 13 strains, respectively).
(§2) In addition, several peptides expressed preferential activity vs. biofilms (MBIC) cf. planktonic cells (MIC) (Table 20).

S. aureus (Sau) [4] = format: cell-based; remark: listed apart in the source
Procedure: as §1, §2

E. coli (Ec) [5] = format: cell-based; remark: listed apart in the source
[6] = planktonic methicillin resistant S. aureus, broth microdilution in Mueller Hinton Broth (MHB), mean of three biological replicates
[7] = planktonic methicillin resistant S. aureus, broth microdilution in Tryptic Soy Broth (TSB) supplemented with 1% glucose, mean of three biological replicates
[8] = planktonic methicillin resistant

Row | Substance | % Toxicity (LDH Release) (PBMCs) | MIC S. aureus (S. aureus (Sau) [1]; Sau) | MIC (μM) MHB [2, 6] | MIC (μM) TSB with 1% Glucose [2, 7] | MBIC E. coli (E. coli (Ec) [3]; Ec) | MBIC S. aureus (S. aureus (Sau) [4]; Sau) | MIC E. coli (E. coli (Ec) [5]; Ec) | MIC (μM) MHB [2, 8] | MIC (μM) TSB with 1% Glucose [2, 8] | MIC S. aureus (S. aureus (Sau) [1]; planktonic cells, Table 20) | MBIC E. coli (E. coli (Ec) [3]; biofilms, Table 20) | MBIC S. aureus (S. aureus (Sau) [4]; biofilms, Table 20) | MIC E. coli (E. coli (Ec) [5]; planktonic cells, Table 20)
1 | IKIIWKALGQVI-NH2 [Peptide 3024, IKIIWKALGQVI] | −1.7% | 16 µg/mL | 16 µM | 32 µM | 2 µg/mL | 8 µg/mL | 4 µg/mL |  |  |  |  |  | 
2 | RVKAIKWRKIVV-NH2 [Peptide 3012, RVKAIKWRKIVV] | 2.8% | >64 µg/mL |  |  | 32 µg/mL | 8 µg/mL | 64 µg/mL | >64 µM | >64 µM |  |  |  | 
3 | KIQRRAWKQWRK-NH2 [Peptide 3014, KIQRRAWKQWRK] | −3.7% | >64 µg/mL |  |  | 64 µg/mL | 64 µg/mL | 64 µg/mL | >64 µM | >64 µM |  |  |  | 
4 | VQRIIWLRVKIV-NH2 [Peptide 3023, VQRIIWLRVKIV] | −3% | 4 µg/mL |  |  | 1 µg/mL | 2 µg/mL | 2 µg/mL | 16 µM | >64 µM |  |  |  | 
5 | IQRWWKVWLKVI-NH2 [Peptide 3004, IQRWWKVWLKVI] | 5.1% | 8 µg/mL |  |  | 2 µg/mL | 1 µg/mL | 4 µg/mL | 4 µM | 16 µM |  |  |  | 
6 | IAWQLLWGWRVR-NH2 [Peptide 3022, IAWQLLWGWRVR] | −4.8% | 8 µg/mL |  |  | 4 µg/mL | 4 µg/mL | 8 µg/mL | 4 µM | 8 µM |  |  |  | 
7 | WQGWAKIWVVRI-NH2 [Peptide 3019, WQGWAKIWVVRI] | −3.1% | 4 µg/mL |  |  | 2 µg/mL | 2 µg/mL | 4 µg/mL | 8 µM | 32 µM |  |  |  | 
8 | KKWQLLIKWKLR-NH2 [Peptide 3008, KKWQLLIKWKLR] | 18.8% | 8 µg/mL |  |  | 4 µg/mL | 2 µg/mL | 8 µg/mL | 2 µM | 4 µM |  |  |  | 
9 | VLKIKVKIWVVK-NH2 [Peptide 3007, VLKIKVKIWVVK] | 2% |  | 16 µM | >64 µM |  |  |  |  |  | 16 µg/mL | 4 µg/mL | 2 µg/mL | 8 µg/mL
10 | VLQIKKVLRLLL-NH2 [Peptide 3011, VLQIKKVLRLLL] | 15.7% |  | 8 µM | 16 µM |  |  |  |  |  | 64 µg/mL | 4 µg/mL | 2 µg/mL | 8 µg/mL
11 | RRQWRGWVRIWL-NH2 [Peptide 3005, RRQWRGWVRIWL] | −4.2% | 8 µg/mL |  |  | 2 µg/mL | 1 µg/mL | 4 µg/mL | 4 µM | 64 µM |  |  |  | 
12 | WKKVQWLKRLLL-NH2 [Peptide 3003, WKKVQWLKRLLL] | 22.5% | 16 µg/mL |  |  | 2 µg/mL | 1 µg/mL | 4 µg/mL | 4 µM | 16 µM |  |  |  | 
13 | WVGVIIKWGLKL-NH2 [Peptide 3018, WVGVIIKWGLKL] | −0.3% | 2 µg/mL |  |  | 2 µg/mL | 1 µg/mL | 4 µg/mL | 2 µM | 4 µM |  |  |  | 
14 | IWLRLKVVLKRK-NH2 [Peptide 3006, IWLRLKVVLKRK] | 2.4% |  | 4 µM | 32 µM |  |  |  |  |  | 8 µg/mL | 1 µg/mL | 1 µg/mL | 2 µg/mL
15 | RRIIKILLWKLR-NH2 [Peptide 3021, RRIIKILLWKLR] | 13.1% | 8 µg/mL |  |  | 2 µg/mL | 1 µg/mL | <1 µg/mL | 4 µM | 32 µM |  |  |  | 
16 | ILVRWIRWRIQW-NH2 [Peptide 3002, ILVRWIRWRIQW] | −3.7% | 8 µg/mL |  |  | 4 µg/mL | 4 µg/mL | 8 µg/mL | 2 µM | 4 µM |  |  |  | 
17 | LIVIQLLKKWWK-NH2 [Peptide 3020, LIVIQLLKKWWK] | 10.2% | 16 µg/mL |  |  | 1 µg/mL | <1 µg/mL | 2 µg/mL | 8 µM | >64 µM |  |  |  | 
18 | VIKWLLKILRAI-NH2 [Peptide 3001, VIKWLLKILRAI] | 64.4% | 2 µg/mL |  |  | 2 µg/mL | <1 µg/mL | 4 µg/mL | 1 µM | 2 µM |  |  |  | 

Reference: patent publication US20210138025A1, “CATIONIC PEPTIDES WITH IMMUNOMODULATORY AND/OR ANTI-BIOFILM ACTIVITIES” (priority 2018, published 2021)
